Reference: US12109190B2, “Urolithins as immune response enhancers” (Amazentis SA, priority 2018, dated 2024)

Assays:
IL-10 / IL-12 (p40) = assay: Plasma cytokines (MILLIPLEX panel) in aged mice after Urolithin A in diet; format: in vivo; conditions: 22 months old male C57BL/6J mice, 50 mg/kg/day in diet, 6 weeks; FIG. 6; p<0.05
Method: Urolithin A is admixed to AIN-93G Growing Rodent Diet (Research Diet, New Brunswick, NJ, USA) at a concentration of 0.5 g/per kg of diet, corresponding to a dose of 50 mg/kg/dy. Pellets with or without UA are given to 22 months old male C57BL/6J mice (Janvier, Saint Berthevin, France) for 6 weeks. A total of 32 mice are housed individually and randomized to 16 animals per group according to their exercise capacity. Animals who die spontaneously during the experiments are excluded from the calculations. These criteria were established before starting the experiments. Animals are euthanized after 6 weeks of treatment after an overnight fasting before collecting blood samples by the vena cava. Blood samples are centrifuged for 15 minutes at 1,500×g, and the plasma supernatant is transferred into a clean tube. Plasma is analyzed for cytokines using the MILLIPLEX MAP Mouse Cytokine/Chemokine Magnetic Bead Panel (MCYTOMAG-70K).
IL-10 is an important anti-inflammatory cytokine (Fiorentino D F, et al., IL-10 inhibits cytokine production by activated macrophages. J Immunol. 1991 Dec. 1; 147(11):3815-22; Fiorentino D F et al., IL-10 acts on the antigen-presenting cell to inhibit cytokine production by Th1 cells. J Immunol. 1991 May 15; 146(10):3444-51). […]

[1] = tested on: haematopoietic stem cells (HSCs) and multipotent progenitor cells (MPPs); assay: Flow cytometry of bone marrow haematopoietic progenitor cell populations from aged mice fed Urolithin A; format: in vivo; conditions: aged C57BL/6J mice, 50 mg/kg/day in diet, 34 weeks; for HSC population as % of total bone marrow cells and number of cells: FIG. 4, versus untreated aged animals, cell number p<0.05, 50 mg/kg/day
Method: To determine if Urolithin A treatment had any effects on stem cell populations, haematopoietic stem cells, (HSCs) and multipotent progenitor cells (MPPs) were isolated from aged C57BL/6J mice that received either a standard rodent diet or a diet containing Urolithin A mixed with food to reach a dosing of 50 mg/kg/day delivered to mice. Mice were treated with urolithin A starting at 16 months of age and received 34 weeks of treatment. At end of the treatment period mice were sacrificed and bone marrow collected from the femur and tibia bones. Single-cell suspensions were made following cell extraction from the bones after removal of muscle and connective tissue.
To determine the effects of Urolithin A treatment on the different progenitor cells of the haematopoietic system, the number and percentage of each progenitor cell type was determined using flow cytometry. Flow cytometry allowed the selection and quantification of cells with different patterns of protein expression on their cell surface. Using labeled monoclonal antibodies, it was possible to identify the different progenitor cell population based on their cell surface protein expression. To isolate the undifferentiated cells which would contain the progenitor population, bone marrow cells were stained with a cocktail of monoclonal antibodies against the cell surface proteins specific to the more differentiated cell types. The antibodies to these proteins, also known as lineage markers were CD3e (17A2), CD4 (GK1.5), CD8a (53.6.7), CD11b (M1/70), CD19 (1D3), Gr1 (RB6.8C5), Ter119 and NK1.1 (PK136), these were conjugated to Alexa 647 [Alexa Fluor 647 dye is a bright, far-red—fluorescent dye used as a label in, for example, fluorescence microscopy]. To discriminate the various lineage progenitor cell populations the isolated bone marrow cells were stained with monoclonal antibodies against the following progenitor cell surface protein markers containing the following labels CD34 (RAM 34)-FITC; CD135 (Flt3 A2F10)-PE; CD48 (HM48.1)-biotin+PE Texas Red Streptavidin; CD117 (ckit 2B8) PerCp-Cy5.5; Sca1 (D7)-PE-Cy7. Cell analysis of the stained cells was performed on a Becton Dickson Flow cytometer (Franklin Lake, NJ, USA) and collected data was analyzed using Flowjo™ software (an analysis platform for single-cell flow cytometry analysis). Bone marrow was isolated from three mice receiving Urolithin A treatment, and six control untreated mice.
To identify the different populations of haematopoietic progenitor cells present in the isolated bone marrow cells, the isolated bone marrow cells were selected based on their cell surface marker combinations. A so-called gating strategy was employed, in which a particular population of cells is selected (gated) based on the pattern of cell surface protein expression, and then this sub-selected population then is further examined for its cell surface protein expression. […] Uncommitted progenitor cells were examined by selecting cells that were negative for the cell surface proteins found on differentiated cells (lineage markers) described above (FIG. 2B). From this population of lineage negative cells, cells were selected that stained positive for the cells surface markers, CD117 (c-kit) and Sca1. This subpopulation of lineage negative, CD117 & Sca1 positive cells (LKS cells) contain the progenitor stem cells (FIG. 2C).
LKS cells can be further divided into four different progenitor cell types, HSC (LT-HSC), MPP 1 (ST-HSC), MPP2, and MPP3 or LMPP with decreasing levels of quiescence (FIG. 1B). The most quiescent and non-committed cells are the HSC cells. To differentiate between these cell populations in the LKS cells, Cells were examined for their expression of CD150 and CD48. The most primitive quiescent cell populations, HSC+MPP1, are positive for the cell surface marker for CD150 and negative for the cell surface marker CD48. […]

O=c1oc2cc(O)ccc2c2ccc(O)cc12 [Urolithin A]
ratio of IL-10 over IL-12 (p40) in plasma (IL-10 / IL-12 (p40)): significant increase | HSC population as % of total bone marrow cells and number of cells [1]: increase | HSC population as % of total bone marrow cells and number of cells ([1]; listed as urolithin A): significant increase | LSK (c-Kit+, Lin-, Sca1+) progenitor cells as % of lineage negative cells ([1]; bone marrow, example plot FIG. 2C, control 3.16%): 5.27% | % of LSK cells that are HSC+MPP1 (CD150+, CD48-) ([1]; example animal FIG. 3, untreated 53.1%): 61.7% | % of HSC+MPP1 cells that are HSC (CD34-) ([1]; example animal FIG. 3, untreated 73.8%): 81.7% | HSC + MPP1, % of undifferentiated cells (LSK cells) ([1]; group value n=3, untreated 40.75 ± 7.42%, p < 0.01): 58.97 ± 11.30%
